Measurements as given in ChEMBL document CHEMBL5247664, “Structure-activity relationship of BMS906024 derivatives for Cryptosporidium parvum growth inhibition” (Bioorg Med Chem Lett, 2023).

How the values were obtained:
Format in all cases: functional, organism-based
Cryptosporidium parvum [1] = experiment: Antiparasitic activity against Cryptosporidium parvum infected in human HCT-8 cells assessed as parasitic growth inhibition measured for 48 hrs by fluorescence based microscopic analysis; conditions: for EC50: HCT-8, 48 h; for EC90: HCT-8, time 48 hrs
Cryptosporidium parvum [2] = experiment: Antiparasitic activity against Cryptosporidium parvum assessed as parasitic growth inhibition measured for 24 hrs
Cryptosporidium parvum [3] = experiment: Antiparasitic activity against Cryptosporidium parvum infected in human HCT-8 cells assessed as parasitic growth inhibition incubated for 45 mins followed by compound washout further infected in cells and measured after 48 hrs by microscopic analysis
Cryptosporidium parvum [4] = experiment: Antiparasitic activity against Cryptosporidium parvum assessed as parasitic growth inhibition

`CN1C(=O)[C@H](NC(=O)[C@H](CCC(F)(F)F)CC(=O)N2CCCCC2)N=C(c2ccccc2)c2cc(Cl)c(OC3COC3)cc21` showed an EC50 (Cryptosporidium parvum [1]) of 5470 nM and an EC90 (Cryptosporidium parvum [1]) of 12800 nM.
With `C[C@H](NC(=O)Cc1cc(F)cc(F)c1)C(=O)N[C@H](C(=O)OC(C)(C)C)c1ccccc1` the EC50 (Cryptosporidium parvum [2]) was 12500 nM.
With `CN1C(=O)[C@H](NC(=O)[C@H](CCC(F)(F)F)CC(=O)N2CCCCC2)N=C(c2ccccc2)c2ccc(OC3CCC3)cc21` the EC50 (Cryptosporidium parvum [1]) was 2520 nM and the EC90 (Cryptosporidium parvum [1]) was 11100 nM.
With `CCCN(CCC)C(=O)C[C@@H](CCC(F)(F)F)C(=O)N[C@H]1N=C(c2ccccc2)c2ccccc2N(C)C1=O` the EC50 (Cryptosporidium parvum [1]) was 1450 nM and the EC90 (Cryptosporidium parvum [1]) was 2790 nM.
With `CCCNC(=O)CC(C)(C)C(=O)N[C@H]1N=C(c2ccccc2)c2ccccc2N(C)C1=O` the EC50 (Cryptosporidium parvum [1]) was greater than 25000 nM and the EC90 (Cryptosporidium parvum [1]) was greater than 25000 nM.
`CCCNC(=O)C(C)(C)CC(=O)N[C@H]1N=C(c2ccccc2)c2ccccc2N(C)C1=O` showed an EC50 (Cryptosporidium parvum [1]) greater than 25000 nM and an EC90 (Cryptosporidium parvum [1]) greater than 25000 nM.
In the case of `CN1C(=O)[C@@H](NC(=O)[C@H](CCC(F)(F)F)CC(N)=O)N=C(c2ccccc2)c2ccccc21`, the EC50 (Cryptosporidium parvum [1]) is reported as greater than 25000 nM and the EC90 (Cryptosporidium parvum [1]) is reported as greater than 25000 nM.
Molecule `CCN(CC)C(=O)C[C@@H](CCC(F)(F)F)C(=O)N[C@H]1N=C(c2ccccc2)c2ccccc2N(C)C1=O` has an EC50 (Cryptosporidium parvum [3]) of 500 nM, an EC50 (Cryptosporidium parvum [1]) of 110 nM and an EC90 (Cryptosporidium parvum [1]) of 310 nM.
Molecule `CN1C(=O)[C@H](NC(=O)[C@H](CCC(F)(F)F)CC(=O)N2CCCCC2)N=C(c2ccccc2)c2ccc(Oc3ccccc3)cc21` has an EC50 (Cryptosporidium parvum [1]) of 1690 nM and an EC90 (Cryptosporidium parvum [1]) of 3610 nM.
`CC(C)[C@H](O)C(=O)N[C@@H](C)C(=O)N[C@@H]1C(=O)N(C)CCc2ccccc21` [SEMAGACESTAT] gave an EC50 (Cryptosporidium parvum [2]) of 4200 nM.
For `CN1C(=O)[C@@H](NC(=O)[C@H](CCC(F)(F)F)CC(=O)OC(C)(C)C)N=C(c2ccccc2)c2ccccc21`, the EC50 (Cryptosporidium parvum [1]) was 550 nM and the EC90 (Cryptosporidium parvum [1]) was 1120 nM.
Molecule `CCCNC(=O)[C@@H](CCC(F)(F)F)CC(=O)N[C@H]1N=C(c2ccccc2)c2ccccc2N(C)C1=O` has an EC50 (Cryptosporidium parvum [1]) greater than 25000 nM and an EC90 (Cryptosporidium parvum [1]) greater than 25000 nM.
`CCCNC(=O)CCC(=O)N[C@H]1N=C(c2ccccc2)c2ccccc2N(C)C1=O` showed an EC50 (Cryptosporidium parvum [1]) greater than 25000 nM and an EC90 (Cryptosporidium parvum [1]) greater than 25000 nM.
For `CCC[C@H](CC(=O)N1CCCC1)C(=O)N[C@H]1N=C(c2ccccc2)c2ccccc2N(C)C1=O`, the EC50 (Cryptosporidium parvum [1]) was 110 nM and the EC90 (Cryptosporidium parvum [1]) was 230 nM.
`CN1C(=O)[C@@H](NC(=O)[C@H](CCC(F)(F)F)CC(=O)N2CCOCC2)N=C(c2ccccc2)c2ccccc21` gave an EC50 (Cryptosporidium parvum [1]) of 52 nM and an EC90 (Cryptosporidium parvum [1]) of 100 nM.
With `COc1ccc2c(c1)N(C)C(=O)[C@@H](NC(=O)[C@H](CCC(F)(F)F)CC(=O)N1CCCCC1)N=C2c1ccccc1` the EC50 (Cryptosporidium parvum [1]) was 31 nM and the EC90 (Cryptosporidium parvum [1]) was 66 nM.
Molecule `CCCNC(=O)C[C@@H](CCC(F)(F)F)C(=O)N[C@H]1N=C(c2ccccc2)c2ccccc2N(C)C1=O` has an EC50 (Cryptosporidium parvum [1]) of 18 nM and an EC90 (Cryptosporidium parvum [1]) of 56 nM.
In the case of `CN1C(=O)[C@@H](NC(=O)[C@H](CCC(F)(F)F)CC(=O)N2CCCCC2)N=C(c2ccccc2)c2ccccc21`, the EC50 (Cryptosporidium parvum [1]) is reported as 6.4 nM and the EC90 (Cryptosporidium parvum [1]) is reported as 16 nM.
`CCCNC(=O)C[C@@H](CCC(F)(F)F)C(=O)N[C@H]1N=C(c2ccccc2)c2ccc(OC)cc2N(C)C1=O` showed an EC50 (Cryptosporidium parvum [1]) of 81 nM and an EC90 (Cryptosporidium parvum [1]) of 150 nM.
`CN1C(=O)[C@H](NC(=O)[C@H](CCC(F)(F)F)CC(=O)N2CCCCC2)N=C(c2ccccc2)c2ccc(OC3COC3)cc21` gave an EC50 (Cryptosporidium parvum [1]) of 2290 nM and an EC90 (Cryptosporidium parvum [1]) of 4900 nM.
Work on `CCCNC(=O)C[C@H](CCC(F)(F)F)C(=O)N[C@H]1N=C(c2ccccc2)c2ccccc2N(C)C1=O` yielded an EC50 (Cryptosporidium parvum [1]) greater than 25000 nM and an EC90 (Cryptosporidium parvum [1]) greater than 25000 nM.
For `CN1C(=O)[C@@H](NC(=O)C[C@H](CCC(F)(F)F)C(N)=O)N=C(c2ccccc2)c2ccccc21`, the EC50 (Cryptosporidium parvum [1]) was 25000 nM and the EC90 (Cryptosporidium parvum [1]) was greater than 25000 nM.
Work on `CN1C(=O)[C@@H](NC(=O)[C@H](CCC(F)(F)F)CC(=O)N2CCCCC2)N=C(c2ccccc2)c2ccc(OC3COC3)cc21` yielded an EC50 (Cryptosporidium parvum [1]) of 110 nM and an EC90 (Cryptosporidium parvum [1]) of 210 nM.
`CN1C(=O)[C@@H](NC(=O)[C@H](CCC(F)(F)F)[C@H](CCC(F)(F)F)C(N)=O)N=C(c2ccccc2)c2ccccc21` [OSUGACESTAT] gave an EC50 (Cryptosporidium parvum [1]) of 1.8 nM, an EC90 (Cryptosporidium parvum [1]) of 2.3 nM and an EC50 (Cryptosporidium parvum [4]) of 1.8 nM.
For `CCNC(=O)C[C@@H](CCC(F)(F)F)C(=O)N[C@H]1N=C(c2ccccc2)c2ccccc2N(C)C1=O`, the EC50 (Cryptosporidium parvum [1]) was 280 nM and the EC90 (Cryptosporidium parvum [1]) was 610 nM.
In the case of `CCCNC(=O)C[C@@H](CCC(F)(F)F)C(=O)N[C@@H]1N=C(c2ccccc2)c2ccc(OC3COC3)cc2N(C)C1=O`, the EC50 (Cryptosporidium parvum [1]) is reported as greater than 25000 nM and the EC90 (Cryptosporidium parvum [1]) is reported as greater than 25000 nM.
`CN1C(=O)[C@@H](NC(=O)[C@H](CCC(F)(F)F)CC(=O)N2CCCCC2)N=C(c2ccccc2)c2ccc(Oc3ccccc3)cc21` showed an EC50 (Cryptosporidium parvum [1]) of 25 nM and an EC90 (Cryptosporidium parvum [1]) of 55 nM.
For `CCCNC(=O)C[C@@H](CCC(F)(F)F)C(=O)N[C@H]1N=C(c2ccccc2)c2ccc(OC3COC3)cc2N(C)C1=O`, the EC50 (Cryptosporidium parvum [1]) was 350 nM and the EC90 (Cryptosporidium parvum [1]) was 970 nM.
For `CN1C(=O)[C@@H](NC(=O)[C@H](CCC(F)(F)F)CC(=O)N2CCCCC2)N=C(c2ccccc2)c2cc(Cl)c(OC3COC3)cc21`, the EC50 (Cryptosporidium parvum [1]) was 320 nM and the EC90 (Cryptosporidium parvum [1]) was 960 nM.
`CN1C(=O)[C@@H](NC(=O)[C@H](CCC(F)(F)F)CC(=O)N2CCCCC2)N=C(c2ccccc2)c2ccc(OC3CCC3)cc21` showed an EC50 (Cryptosporidium parvum [1]) of 77 nM and an EC90 (Cryptosporidium parvum [1]) of 160 nM.
